Measurements reported in ChEMBL document CHEMBL1151370, “Marine animal biosynthetic constituents for cancer chemotherapy” (1981).

Test system: P388
Experiment: Antineoplastic activity against mouse P388 cells
Format: functional

Q: For CC(C)C[C@@H]1NC(=O)[C@@H]2CCCN2C(=O)[C@H](C(C)C)NC(=O)c2csc(n2)CNC(=O)c2csc(n2)[C@H](CCC(N)=O)NC1=O [DOLASTATIN 3], which ED50 is on record?
A: Its ED50 is 2.7 ×10⁻⁷ ug/ml.
